In US10183030B2, “17α,21-diesters of cortexolone for use in the treatment of tumors” (COSMO TECHNOLOGIES LTD., priority 2014, dated 2019):
Where two headings read alike, the source gives them in different places.

What was measured:
MCF7 breast cancer cells = test: In vitro proliferation / cytotoxic assay, MCF7; type: cell-based; details: Homo sapiens
Procedure: After 72 hours incubation cell were harvested, lysed and viability determined using the cell titer glow assay for viability.

[1] = test system: stimulated PBMC (actively dividing cells); test: IC50 on stimulated PBMC (intrinsic toxicity); type: cell-based; details: Homo sapiens
Procedure: (§4) The IC50 in PBMC were tested in 2 different activation status: • stimulated—actively dividing cells • resting—quiescent, non-dividing cells
(§5) IC50 of the compounds was determined on fresh cells isolated from human blood (PBMC).

HT29 colon cancer cells = test: In vitro proliferation, HT29 (cancer cell panel); type: cell-based; details: Homo sapiens, HT-29, HT29
Procedure: (§1) Each compounds was titrated from 3 uM to 200 uM.

[2] = test system: MiaPaca2 (AR low) pancreatic cancer cells; test: ATP-dependent proliferation/viability assay, MiaPaca2; type: cell-based; details: Homo sapiens
Procedure: (§2) The experimental method consisted of: • 1. […] After 24 hours, 10 nM DHT (dihydrotestosterone) with or without anti-androgen compounds, or DMSO vehicle (negative control) was added to the cultures. • 3.
as §1

[3] = test system: Panc1 (AR+) pancreatic cancer cells; test: ATP-dependent proliferation/viability assay, Panc1; type: cell-based; details: Homo sapiens
Procedure: as §2, §1

[4] = test system: LNCaP (AR+) prostate cancer cells; test: ATP-dependent proliferation/viability assay, LNCaP; type: cell-based; details: Homo sapiens
Procedure: (§3) The experiment was performed to test and to define the antitumor activity in vitro of cortexolone 17α-benzoate on LNCaP (AR^+) and PC3 (AR^−), representative of Prostatic cancer cell lines with Androgen Receptor (AR) positive or negative expression, respectively. The experimental method consisted of: • 1. […] After 24 hours, 10 nM DHT (dihydrotestosterone) with or without anti-androgen compounds, or DMSO vehicle (negative control) was added to the cultures. • 3.
as §3, with “define” for “define the”, “17α-valerate-21-propionate (CB-03-10)” for “17α-benzoate”, “AR” for “Androgen Receptor (AR)”
as §1

[5] = test system: PC3 (AR−) prostate cancer cells; test: ATP-dependent proliferation/viability assay, PC3; type: cell-based; details: Homo sapiens
[6] = test system: PC3 (AR−) prostate cancer cells; test: ATP-dependent proliferation/viability assay, PC3; type: cell-based; details: Homo sapiens, 72 h, 3 days
Procedure: as §3
as §3, with “define” for “define the”, “17α-valerate-21-propionate (CB-03-10)” for “17α-benzoate”, “AR” for “Androgen Receptor (AR)”
as §1

[7] = test system: resting PBMC (quiescent, non-dividing cells); test: IC50 on resting PBMC (intrinsic toxicity); type: cell-based; details: Homo sapiens
Procedure: as §4, §5

[8] = In vivo pharmacokinetics in mouse plasma; details: mouse, in vivo, 40 mg/kg
Procedure: The pharmacokinetic of CB-03-10 was evaluated in plasma of mice after intravenous (IV), subcutaneous (SC) and oral administration (PO).
Mice (3 per group) were administered with the following doses, blood was collected at the indicated times. Plasma samples were analyzed by HPLC-MS/MS.

[9] = test system: Caspase 8, 9 and 3/7 in MiaPaca2 cells; test: Caspase activity in MiaPaca2 cells; type: cell-based, human; details: 8, 24, 48 hours
Procedure: From previous studies was determined that CB-03-10 induces apoptosis using Annexin V staining in MiaPaca2 cells. To better analyze the phenomenon the enzymatic activity of Caspase 8 (initiator caspase for Extrinsic Pathway) and Caspase 9 (initiator caspase for Intrinsic Pathway) and of Caspases 3 and 7 (effector caspases) were measured.
After 24 hours test compounds were added to cells, Gemcitabine (a known pancreatic cancer chemotherapeutic agent) and DMSO were used as positive and negative control, respectively. After 8, 24, & 48 hours incubation with test compounds, cells were lysed in buffer containing the caspase 3/7 or 8 or 9 substrate and a stable luciferase in proprietary buffers. The lysates were transferred to white opaque plates before measuring luminescence in a Tecan Safire instrument. Parallel plates treated identically, were used to determine viable cells. All caspase activities were corrected for the number of viable cells.

[10] = test system: MiaPaca-2 xenograft tumor; test: MiaPaca2 human pancreatic tumor xenograft in nude mice, subcutaneous treatment; type: in vivo, mouse
Procedure: The test was carried out comparing the anti-tumor activity of cortexolone 17α-benzoate at two different dosages (8.0 mg/kg, corresponding approximately at 230 μM, and 40 mg/kg, corresponding approximately at 1150 μM), versus the vehicle (i.e. 0.4% (v/v) tween 80 and 0.5% (w/v) carboxymethylcellulose in normal saline) and versus the comparator Cyproterone Acetate at two different dosages (7.4 mg/kg and 37 mg/kg).
1×10^6 MiaPaca-2 cells suspended in matrigel were subcutaneously injected into 6 week old athymic nude mice.
The treatment with the tested compounds, with the vehicle and with the comparative compound, was initiated after the tumor volume has reached 50 mm^3 after transplantation. All compounds were injected 100 μL/mouse subcutaneously of low dose solution (approximately 230 μM) or 100 μL/mouse of high dose solution (approximately 1150 μM) of cortexolone 17α-benzoate, vehicle and cyproterone acetate, respectively. Compounds and controls were administered subcutaneously daily for 28 days.
Tumors were measured every 4 days with a digital caliper.
The results are plotted in FIG. 1 as average change in tumor volume relative to the start of treatment. Tumor volume was calculated according to the formula 0.5236(r1)^2(r2) where r1<r2.
The test was carried out comparing the anti-tumor activity of cortexolone 17α-valerate-21-propionate (CB-03-10) at two different dosages (approximately 8.6 mg/kg and 43 mg/kg) versus the vehicle (i.e. 0.4% (v/v) tween 80 and 0.5% (w/v) carboxymethylcellulose in normal saline) and versus the comparator Cyproterone Acetate at two different dosages (7.4 mg/kg and 37 mg/kg).
The treatment with the tested compound, with the vehicle and with the comparative compound was initiated after the tumor has reached a volume of 50 mm^3 after implantation, injecting subcutaneously 100 μL/mouse of low dose solution (approximately 230 μM) or 100 μL/mouse of high dose solution (approximately 1150 μM) of cortexolone 17α-valerate-21-propionate (CB-03-10), vehicle and cyproterone acetate, respectively. Compounds and controls were administered subcutaneously daily for 28 days.
The results are plotted in FIG. 2 as average change in tumor volume relative to the start of treatment. Tumor volume was calculated according to the formula 0.5236(r1)^2(r2) where r1<r2.
CPA a well-known anti-androgen was used as control. Briefly 1×10^6 MiaPaca2 cells suspended in matrigel were subcutaneously (SC) injected into 6 week old male athymic nude mice. Tumors were measured every 4 days with a digital caliper. Tumor volume was calculated according to the formula: 0.5236(r1) 2(r2) where r1<r2. Treatment with CB-03-10 and controls compounds was initiated after the tumor had reached 50 mm^3. Compounds diluted in DMSO/2-hydroxypropyl b-cyclodextrin (vehicle) were injected subcutaneously (SC) daily (100 μL/mouse) at the concentration of 40 mg/Kg daily for 28 consecutive days.

[11] = MCF7, Table IV, read-out: In vitro proliferation IC50 (micro Molar)
[12] = PBMC STIMULATED, Table IV, read-out: In vitro proliferation IC50 (micro Molar)
[13] = Table IV, read-out: In vitro proliferation IC50 (micro Molar)
[14] = MIA PaCa-2, 72 h, MiaPaca2, Tables I and II, unit inferred, titrated from 3 uM to 200 uM, 3 days, read-out: IC50
[15] = MIA PaCa-2, MiaPaca2, Table IV, read-out: In vitro proliferation IC50 (micro Molar)
[16] = PANC-1, 72 h, Panc1, Tables I and II, unit inferred, titrated from 3 uM to 200 uM, 3 days, read-out: IC50
[17] = PANC-1, Panc1, Table IV, read-out: In vitro proliferation IC50 (micro Molar)
[18] = 72 h, Tables I and II, unit inferred, compounds titrated from 3 uM to 200 uM, 3 days, read-out: IC50
[19] = Tables I and II, unit inferred, titrated from 3 uM to 200 uM
[20] = Table III, read-out: in vitro proliferation IC50 (μ/M)

Row | IC50 [4, 18] [µM] | IC50 [4, 13] [µM] | IC50 [5, 13] [µM] | IC50 [6, 19] [µM] | SMILES | IC50 (MCF7 breast cancer cells; [11]) [µM] | IC50 [1, 12] [µM] | IC50 (HT29 colon cancer cells; [13]) [µM] | IC50 [2, 14] [µM] | IC50 [2, 15] [µM] | IC50 [3, 16] [µM] | IC50 [3, 17] [µM] | Caspase 3/7 induction [9] | also measured
1 | – | – | – | – | CCCC(=O)OC1(C(=O)CO)CCC2C3CCC4=CC(=O)CC[C@]4(C)C3=CC[C@@]21C (single isomer, unassigned) [CB-03-04] | 88 | 360 | 51 | 160 | 160 | 340 | 340 | – | –
2 | 33 | 33 | 190 | 190 | CCC(=O)O[C@]1(C(=O)CO)CC[C@H]2[C@@H]3CCC4=CC(=O)CC[C@]4(C)[C@H]3CC[C@@]21C [CB-03-01] | 121 | 0.1 | – | 110 | 110 | 490 | 490 | – | –
3 | – | – | – | – | C[C@]12CCC(=O)C=C1CC[C@@H]1[C@@H]2CC[C@@]2(C)[C@H]1CC[C@]2(OC(=O)c1ccccc1)C(=O)CO [CB-03-06, cortexolone 17α-benzoate] | – | – | – | – | – | – | – | – | pancreatic tumor size increase relative to the start of treatment ([10]; Examples 5 and 6, SC daily for 28 days, test compounds at high dose (approximately 1150 μM, 100 μL/mouse), Cyproterone Acetate treatment groups 7.4 and 37 mg/kg): less than 5 fold
4 | 22 | 22 | 90 | 90 | CC(=O)O[C@]1(C(C)=O)CC[C@H]2[C@@H]3C=C(Cl)C4=CC(=O)[C@@H]5C[C@@H]5[C@]4(C)[C@H]3CC[C@@]21C [Cyproterone Acetate, Cyproterone acetate, reference compound] | 64 | 62 | – | 39 | 39 | 46 | 46 | – | pancreatic tumor size increase relative to the initial size, during the treatment period ([10]; Example 22, 40 mg/Kg SC daily for 28 consecutive days): 12 fold; IC50 ([7]; resting PBMC, Example 7, Experiment 1, read-out: IC50 (microM) on Resting PBMC): 18 µM; IC50 ([7]; resting PBMC, Example 7, Experiment 2, read-out: IC50 (microM) on Resting PBMC): 84 µM; IC50 ([1]; stimulated PBMC, Example 7, Experiment 1, read-out: IC50 (microM) on Stimulated PBMC): 63 µM; IC50 ([1]; stimulated PBMC, Example 7, Experiment 2, read-out: IC50 (microM) on Stimulated PBMC): 62 µM; IC50 ([4]; 72 h, 10 nM DHT, 3 days, Examples 1-2, Experiment 1 (sigmoidal dose response fit), read-out: IC50): 29 µM; IC50 ([4]; 72 h, 10 nM DHT, 3 days, Examples 1-2, Experiment 2 (nonlinear regression least squares fit), read-out: IC50): 22 µM; IC50 ([6]; 10 nM DHT, Examples 1-2, Experiment 1): 98 µM; IC50 ([6]; 10 nM DHT, Examples 1-2, Experiment 2): 90 µM; IC50 ([2]; MIA PaCa-2, 72 h, MiaPaca2, 10 nM DHT, 3 days, Examples 3-4, Experiment 1, sigmoidal dose-response curve fit, read-out: IC50): 46 µM; IC50 ([2]; MIA PaCa-2, 72 h, MiaPaca2, 10 nM DHT, 3 days, Examples 3-4, Experiment 2, pooled experiments, least-squares fit, read-out: IC50): 39 µM; IC50 ([2]; MIA PaCa-2, MiaPaca2, Example 7, Experiment 1, read-out: IC50): 39 µM; IC50 ([2]; MIA PaCa-2, MiaPaca2, Example 7, Experiment 2, read-out: IC50): 39 µM; IC50 ([3]; PANC-1, 72 h, Panc1, 10 nM DHT, 3 days, Examples 3-4, Experiment 1, sigmoidal dose-response curve fit, read-out: IC50): 54 µM; IC50 ([3]; PANC-1, 72 h, Panc1, 10 nM DHT, 3 days, Examples 3-4, Experiment 2, pooled experiments, least-squares fit, read-out: IC50): 46 µM; IC50 ([3]; PANC-1, Panc1, Example 7, Experiment 1, read-out: IC50): 52 µM; IC50 ([3]; PANC-1, Panc1, Example 7, Experiment 2, read-out: IC50): 46 µM
5 | – | – | – | – | Nc1ccn([C@@H]2O[C@H](CO)[C@@H](O)C2(F)F)c(=O)n1 [Gemcitabine, reference compound] | – | – | – | – | – | – | – | not seen until the 48 hours mark | –

Row | SMILES | IC50 [4, 18] [µM] | IC50 [4, 13] [µM] | IC50 [5, 13] [µM] | IC50 [6, 19] [µM] | IC50 (MCF7 breast cancer cells; [11]) [µM] | IC50 [1, 12] [µM] | IC50 (HT29 colon cancer cells; [13]) [µM] | IC50 [2, 14] [µM] | IC50 [2, 15] [µM] | IC50 [3, 16] [µM] | IC50 [3, 17] [µM] | Caspase 3/7 induction [9] | also measured
6 | CCCCC(=O)O[C@]1(C(=O)CO)CC[C@H]2[C@@H]3CCC4=CC(=O)CC[C@]4(C)[C@H]3CC[C@@]21C [CB-03-05, cortexolone 17α-valerate] | 32 | 32 | 170 | 170 | 50 | 130 | 30 | 59 | 59 | 74 | 74 | does not show a good profile for caspase activation | IC50 (MCF7 breast cancer cells; MCF7 (ER+PR+GR+/−), 72 hours, Table VI, unit inferred, read-out: IC50 on breast cancer cells): 50 µM; IC50 (MCF7 breast cancer cells; MCF7, Table III, read-out: in vitro proliferation IC50 (μ/M)): 50 µM; IC50 ([7]; PBMC RESTING, Table III, read-out: in vitro proliferation IC50 (μ/M)): 120 µM; IC50 ([1]; PBMC STIMULATED, Table III, read-out: in vitro proliferation IC50 (μ/M)): 130 µM; IC50 (HT29 colon cancer cells; Table III, read-out: in vitro proliferation IC50 (μ/M) (converted)): 30 µM; body exposure (metabolite after CB-03-10 dosing) ([8]; po): 47 h/ng/mL; body exposure (metabolite after CB-03-10 dosing) ([8]; sc): 189 h/ng/mL; IC50 [4, 20]: 32 µM; IC50 ([4]; general conclusion text, read-out: IC50 in LNCaP prostate cancer cells): 32 µM; IC50 [5, 20]: 170 µM; IC50 ([2]; MIA PaCa-2, MiaPaca2, Table III, read-out: in vitro proliferation IC50 (μ/M)): 59 µM; IC50 ([3]; PANC-1, Panc1, Table III, read-out: in vitro proliferation IC50 (μ/M)): 74 µM
